Results published in ChEMBL document CHEMBL3352476, “Antimicrobial Constituents of the Mature Carpels of Manglietiastrum sinicum” (J Nat Prod, 2014).
≈ marks a conversion by molar mass, not a printed value. Structures can show the parent of a compound that is named as a salt. Calls of active or inactive are those of the source. No cut-off for these calls is given here.

Key:
Staphylococcus aureus [1] = assay: Antimicrobial activity against Staphylococcus aureus by agar plate punch assay; assay type: functional
A549 = assay: Cytotoxicity against human A549 cells by MTT assay; assay type: functional, cell-based
SW480 = assay: Cytotoxicity against human SW480 cells by MTT assay; assay type: functional, cell-based
Platelet [2] = assay: Inhibition of PAF-induced platelet aggregation in rabbit platelet rich plasma at 200 ug/ml preincubated for 10 mins before addition of inducer by aggregometry; assay type: functional; conditions: Oryctolagus cuniculus
[3] = Cytotoxicity against human SSMC-7721 cells by MTT assay; assay type: functional, cell-based
[4] = Cytotoxicity against human HL60 cells by MTT assay; assay type: functional, cell-based; conditions: HL-60
Platelet [5] = assay: Inhibition of ADP-induced platelet aggregation in rabbit platelet rich plasma at 200 ug/ml preincubated for 10 mins before addition of inducer by aggregometry; assay type: functional; conditions: Oryctolagus cuniculus
Platelet [6] = assay: Inhibition of arachidonic acid-induced platelet aggregation in rabbit platelet rich plasma at 200 ug/ml preincubated for 10 mins before addition of inducer by aggregometry; assay type: functional; conditions: Oryctolagus cuniculus
MCF7 = assay: Cytotoxicity against human MCF7 cells by MTT assay; assay type: functional, cell-based
Staphylococcus aureus [7] = assay: Antimicrobial activity against methicillin-resistant Staphylococcus aureus 98 by 2-fold dilution assay; assay type: functional
Staphylococcus aureus [8] = assay: Antimicrobial activity against methicillin-resistant Staphylococcus aureus 331 by 2-fold dilution assay; assay type: functional
Staphylococcus aureus [9] = assay: Antimicrobial activity against methicillin-resistant Staphylococcus aureus 92 by 2-fold dilution assay; assay type: functional
Staphylococcus aureus [10] = assay: Antimicrobial activity against methicillin-resistant Staphylococcus aureus 82 by 2-fold dilution assay; assay type: functional
Staphylococcus aureus [11] = assay: Antimicrobial activity against Staphylococcus aureus by 2-fold dilution assay; assay type: functional

| Structure (SMILES) | diameter of the inhibition zone (DIZ) (Staphylococcus aureus [1]) [mm] | IC50 (A549) [µM] | IC50 (SW480) [µM] | inhibition (Platelet [2]) | IC50 [3] [µM] | IC50 [4] [µM] | inhibition (Platelet [5]) | inhibition (Platelet [6]) | IC50 (MCF7) [µM] | MIC (Staphylococcus aureus [7]) [µM] | MIC (Staphylococcus aureus [8]) [µM] | MIC (Staphylococcus aureus [9]) [µM] | MIC (Staphylococcus aureus [10]) [µM] | MIC (Staphylococcus aureus [11]) [µM] |
| --- | --- | --- | --- | --- | --- | --- | --- | --- | --- | --- | --- | --- | --- | --- |
| COc1cc(C(=O)O[C@@H](c2cc(OC)c(OC)c(OC)c2)[C@H](C)C(C)=O)ccc1O | <10 | > 40 | > 40 | inactive | > 40 | > 40 | inactive | inactive | > 40 | – | – | – | – | – |
| COc1cc(C(=O)O[C@@H](c2cc(O)c(OC)c(OC)c2)[C@H](C)C(C)=O)cc(O)c1OC | <10 | > 40 | > 40 | inactive | > 40 | > 40 | inactive | inactive | > 40 | – | – | – | – | – |
| COC1=CC2(C=C(OC)C1=O)C[C@@H](C)[C@H](C)Cc1cc3c(c(OC)c12)OCO3 | – | > 40 | > 40 | inactive | > 40 | > 40 | inactive | inactive | > 40 | 16 (≈ 6.18 µg/mL) | 32 (≈ 12.4 µg/mL) | 65 (≈ 25.1 µg/mL) | 65 (≈ 25.1 µg/mL) | 130 (≈ 50.2 µg/mL) |
| COc1cc([C@@H]2O[C@H](c3ccc4c(c3)OCO4)[C@H](C)[C@H]2C)cc(O)c1OC | – | > 40 | > 40 | inactive | > 40 | > 40 | inactive | inactive | > 40 | 67 (≈ 25 µg/mL) | 34 (≈ 12.7 µg/mL) | 67 (≈ 25 µg/mL) | 67 (≈ 25 µg/mL) | 67 (≈ 25 µg/mL) |
| COc1cc([C@H]2O[C@@H](c3ccc4c(c3)OCO4)[C@H](C)[C@@H]2C)cc(O)c1OC | – | 27.4 | 19.1 | inactive | > 40 | 39.8 | inactive | inactive | 14 | 34 (≈ 12.7 µg/mL) | 130 (≈ 48.4 µg/mL) | 67 (≈ 25 µg/mL) | 67 (≈ 25 µg/mL) | 67 (≈ 25 µg/mL) |
| CN[C@H](CC(C)C)C(=O)N[C@H]1C(=O)N[C@@H](CC(N)=O)C(=O)N[C@H]2C(=O)N[C@H]3C(=O)N[C@H](C(=O)N[C@H](C(=O)O)c4cc(O)cc(O)c4-c4cc3ccc4O)[C@H](O)c3ccc(c(Cl)c3)Oc3cc2cc(c3O[C@@H]2O[C@H](CO)[C@@H](O)[C@H](O)[C@H]2O[C@H]2C[C@](C)(N)[C@H](O)[C@H](C)O2)Oc2ccc(cc2Cl)[C@H]1O [VANCOMYCIN HYDROCHLORIDE] | – | – | – | – | – | – | – | – | – | 0.54 | 0.54 | 0.54 | 0.54 | 1.1 |
| COc1cc([C@@H]2O[C@H](c3cc(O)c(OC)c(OC)c3)[C@@H](C)[C@@H]2C)ccc1O | – | > 40 | > 40 | inactive | > 40 | > 40 | inactive | inactive | > 40 | 130 (≈ 48.7 µg/mL) | 130 (≈ 48.7 µg/mL) | 130 (≈ 48.7 µg/mL) | 67 (≈ 25.1 µg/mL) | 130 (≈ 48.7 µg/mL) |
| COc1cc2c(cc1O)[C@@H]1O[C@H](c3cc4c(c(OC)c3-2)OCO4)[C@H](C)[C@@H]1C | – | > 40 | > 40 | inactive | 38.2 | 17 | inactive | inactive | > 40 | 34 (≈ 12.6 µg/mL) | 140 (≈ 51.9 µg/mL) | 68 (≈ 25.2 µg/mL) | 140 (≈ 51.9 µg/mL) | 68 (≈ 25.2 µg/mL) |
